Measured values from patent US20060204502A1 (priority 2004, published 2006).

Legend:
[1] = tested on: HIF-1α; experiment: HIF-1α protein immunoblot in hypoxic cells; type: cell-based, human; details: A375
Procedure: Cell culture and hypoxia treatment: Cells were maintained in DMEM (A375), EMEM (NCTC 2544) or RPMI 1640 (U87MG, U2OS) medium containing 10% fetal calf serum, penicillin (100 U/ml), streptomycin (100 ug/ml), and L-glutamine (2 mM) at 37° C. in 5% CO2/95% air. Cells were passaged two or three times weekly at a ratio between 1:5 and 1:10. Hypoxic exposure was in BBL™ GasPak pouch™ System (Becton Dickinson) that reduce oxygen concentration of less than 2% within 2 hours of incubation at 35° C.
Cells were harvested and washed with ice-cold PBS containing 1 mM sodium orthovanadate, AEBSF 104 mM, aprotinin 0.08 mM, leupeptin 2 mM, bestatin 4 mM, pepstatin A 1.5 mM, E-64 1.4 mM. Cells were then lysed in Triton lysis buffer. The protein concentration was determined using BCA protein assay kit (Pierce). […] The gel was then electroblotted onto a nitrocellulose membrane. Membranes were blocked with 5% nonfat dry milk in PBS containing 0.1% Tween-20 and incubated with antibodies against HIF-1α (1:250 dilution) and HIF-1β (1:1000 dilution) in 5% nonfat dry milk in PBS/0.1% Tween-20 overnight at 4° C. Aliquots of total protein sample (50 ug) were analyzed using antibodies specific for phosphorylated (Thr183/Tyr185) or total p44/p42 MAPK (1:5000 dilution), phosphorylated (Thr180/Tyr182) or total p38 MAPK (1:1000 dilution) and for A3 receptor (1 µg/ml dilution). Filters were washed and incubated for 1 hour at room temperature with peroxidase-conjugated secondary antibodies against mouse and rabbit IgG (1:2000 dilution). […] The membranes were then stripped and reprobed with tubulin (1:250) to ensure equal protein loading.
U0126 was used at 10 and 30 uM as inhibitor of MEK-1 and MEK-2 to prevent p44 and p42 MAPK activation. SB202190 was used at 1 and 10 uM as inhibitor of p38 MAPK.
Densitometry analysis: The intensity of each band in immunoblot assay was quantified using molecular analyst/PC densitometry software (Bio-Rad). […] The data were presented as the mean±S.E., and analyzed by the Student's test.

[2] = tested on: Human Pancreatic Cancer Panc-1; experiment: MTT growth inhibitory assay, Panc-1; type: cell-based; details: Panc-1 cells, A3 antagonist at 1 μg/ml
Procedure: Interpretation of the EF is dependent upon the concentrations of A3 receptor antagonist tested. For example, when using very low concentrations of A3 receptor antagonist, any EF above 1.0 is synergistic if the A3 receptor antagonist concentration is below the threshold of cell growth inhibition.
The cells are sub-cultured twice a week.
Vinblastine sulfate salt was obtained from Sigma Chemical Co., (V1377). Irinotecan was diluted with culture medium. All other agents were dissolved in 100% DMSO at appropriate concentrations. The DMSO stock solutions were diluted 100-fold with growth medium so that the final DMSO concentration was 1%.

In the case of `CCCn1cc2c(nc(NC(=O)Nc3ccc(OC)cc3)n3nc(-c4ccco4)nc23)n1` [MRE3008F20, 5-[[(4-Methoxyphenyl)amino]carbonyl]amino-8-propyl-2-(2-furyl)-pyrazolo[4,3-e]1,2,4-triazolo[1,5-c]pyrimidine], the “effect on adenosine-induced HIF-1α protein expression” value ([1]; hypoxia 4 hours, adenosine 100 μM, antagonist 100 nM) is reported as “abrogated”, the “effect on Cl-IB-MECA-induced HIF-1α modulation” value ([1]; hypoxia, antagonist 10 and 100 nM, Cl-IB-MECA 10 and 100 nM) is reported as “able to abrogate the effect of Cl-IB-MECA” and the IC50 ([1]; Homo sapiens, A-375, read-out: IC50, inhibition of HIF-1α protein increase induced by 10 nM Cl-IB-MECA, hypoxia 4 hours, 0.3-30 nM) is reported as 0.9 ± 0.08 nM. The “Enhancement Factor” value ([2]; enhancement of docetaxel IC50) was 1.8 and the “Enhancement Factor” value ([2]; enhancement of paclitaxel IC50) was 1.9.
